Test results published in patent US20260159485A1, “ANDROGEN RECEPTOR DEGRADERS FOR THE TREATMENT OF CASTRATION-RESISTANT PROSTATE CANCER AND USE THEREOF” (AUTOTAC INC., priority 2021, published 2026).

Assays:
[1] = system: androgen-responsive and unresponsive cell; experiment: Increase of the autophagy flux in androgen-responsive and unresponsive cell; type: cell-based; conditions: FIG. 1; for increase of autophagy at low concentration: 0.01 μM
Protocol: (§1) Hereinafter, experimental examples to show the effects of the disclosed compounds are described. Unless otherwise described, the following experiments were conducted with conventional materials and methos well known in the an for measuring a similar function.
Experimental Example 1. Increase of the Autophagy Flux in Androgen-Responsive and Unresponsive Cell by AR Inhibitors of the Present Invention

androgen receptor [2] = target: T1, androgen receptor (Homo sapiens, UniProt P10275); experiment: Degradation of androgen receptor through autophagy; type: cell-based; conditions: FIG. 2a to 2c
T1 construct: endogenous in cells
T1 sequence (P10275 1-920): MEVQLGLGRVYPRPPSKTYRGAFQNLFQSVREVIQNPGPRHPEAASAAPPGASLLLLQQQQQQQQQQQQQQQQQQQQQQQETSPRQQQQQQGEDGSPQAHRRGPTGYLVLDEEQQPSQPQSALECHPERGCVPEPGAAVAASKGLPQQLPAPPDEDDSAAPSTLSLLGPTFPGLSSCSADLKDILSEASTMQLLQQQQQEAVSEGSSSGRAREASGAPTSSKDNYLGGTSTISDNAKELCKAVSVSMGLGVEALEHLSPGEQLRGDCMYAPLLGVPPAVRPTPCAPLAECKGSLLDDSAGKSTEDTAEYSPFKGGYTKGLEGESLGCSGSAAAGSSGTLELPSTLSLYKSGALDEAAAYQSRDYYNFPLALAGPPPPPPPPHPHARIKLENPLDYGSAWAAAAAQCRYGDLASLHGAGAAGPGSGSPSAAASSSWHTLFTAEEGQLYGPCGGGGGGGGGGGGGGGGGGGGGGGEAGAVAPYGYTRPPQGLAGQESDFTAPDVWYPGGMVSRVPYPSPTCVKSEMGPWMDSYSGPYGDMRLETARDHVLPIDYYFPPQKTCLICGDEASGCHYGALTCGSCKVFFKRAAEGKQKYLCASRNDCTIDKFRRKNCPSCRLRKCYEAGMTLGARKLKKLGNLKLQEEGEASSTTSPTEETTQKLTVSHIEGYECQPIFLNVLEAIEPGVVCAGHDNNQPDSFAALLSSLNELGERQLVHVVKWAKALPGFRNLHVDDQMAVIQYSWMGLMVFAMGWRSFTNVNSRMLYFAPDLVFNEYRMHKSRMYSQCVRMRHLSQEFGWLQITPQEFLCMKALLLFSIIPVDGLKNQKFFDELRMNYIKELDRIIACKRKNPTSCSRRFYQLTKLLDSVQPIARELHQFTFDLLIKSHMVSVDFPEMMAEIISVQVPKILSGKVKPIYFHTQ
Protocol: as §1
Experimental Example 2. Anticancer Efficacy Via Degradation of Androgen Receptor

[3] = system: AR-V7-expressing 22Rv1 xenograft; experiment: Tumor growth in AR-V7-expressing 22Rv1 xenograft model; type: in vivo; conditions: SCID mice, intraperitoneally 5 times per week, 20 mg/kg; FIG. 10
Protocol: 22Rv1 cells (4×10^6 cells/animal) were injected subcutaneously into 10-week-old male SCID mice to generate xenograft. The mice bearing tumor were randomly divided into vehicle or AUTOTAC treatment groups (4 or 5 mice per group), Compound B was injected via intraperitoneally 5 times per week at a dose of 20 mg/kg body weight, whereas the vehicle group received an equal volume of PBS containing 5% DMSO and 10% solutol. (FIG. 10)

androgen receptor [4] = target: T2, androgen receptor (Homo sapiens, UniProt P10275, T878A); experiment: Degradation of androgen receptor in tumor of mice; type: in vivo; conditions: LNCaP xenograft tumor; FIG. 8e
T2 construct: from tissue; host or cells: LNCaP xenograft tumour in mice
Excerpt: 2. Degradation of Androgen Receptor

LNCaP xenograft tumors = experiment: Growth of LNCaP xenograft tumors in mice; type: in vivo; conditions: FIG. 8a to 8d
Excerpt: Experimental Example 4. […] Inhibition of Tumor Growth

[5] = system: androgen-responsive prostate cancer cell; experiment: Cell proliferation / cell cycle of prostate cancer cell; type: cell-based; conditions: blocking the cell cycle in G1 phase; FIG. 7
Protocol: as §1
(§2) Experimental Example 3. Compound B Inhibits Proliferation of Androgen-Responsive Prostate Cancer Cell

AR target genes = experiment: Down-regulation of AR signaling pathway: expression of AR target genes; type: cell-based; conditions: FIG. 4
Protocol: as §1
3. Down-Regulation of AR Signaling Pathway

[6] = system: androgen-responsive prostate cancer cell; experiment: Colony formation of prostate cancer cell; type: cell-based; conditions: FIG. 6
Protocol: as §1, §2

wild type AR = target: T3, wild type AR (Homo sapiens, UniProt P10275); experiment: Degradation of wild type AR in enzalutamide resistant cell; type: cell-based; conditions: FIG. 9a
T3 construct: endogenous in cells
T3 sequence (P10275 1-920): T1 sequence (P10275 1-920)
Excerpt: (§3) Experimental Example 5. Xtandi-AUTOTAC Degrades AR Splice Variant 7, Predictive Biomarker of Metastatic Castration-Resistant Prostate Cancer Degradation of AR Variant (FIG. 9a to FIG. 9d)

[7] = system: AR splice variant 7 (AR-V7); experiment: Degradation of AR splice variant 7 in enzalutamide resistant cell; type: cell-based
Excerpt: as §3

androgen receptor [8] = target: T1, androgen receptor; experiment: Inactivation of AR: transcriptional activity of androgen receptor; type: cell-based; conditions: by forming aggregation with p62 in the cytosol; FIG. 3
Protocol: as §1

T2 sequence (P10275 whole entry T878A): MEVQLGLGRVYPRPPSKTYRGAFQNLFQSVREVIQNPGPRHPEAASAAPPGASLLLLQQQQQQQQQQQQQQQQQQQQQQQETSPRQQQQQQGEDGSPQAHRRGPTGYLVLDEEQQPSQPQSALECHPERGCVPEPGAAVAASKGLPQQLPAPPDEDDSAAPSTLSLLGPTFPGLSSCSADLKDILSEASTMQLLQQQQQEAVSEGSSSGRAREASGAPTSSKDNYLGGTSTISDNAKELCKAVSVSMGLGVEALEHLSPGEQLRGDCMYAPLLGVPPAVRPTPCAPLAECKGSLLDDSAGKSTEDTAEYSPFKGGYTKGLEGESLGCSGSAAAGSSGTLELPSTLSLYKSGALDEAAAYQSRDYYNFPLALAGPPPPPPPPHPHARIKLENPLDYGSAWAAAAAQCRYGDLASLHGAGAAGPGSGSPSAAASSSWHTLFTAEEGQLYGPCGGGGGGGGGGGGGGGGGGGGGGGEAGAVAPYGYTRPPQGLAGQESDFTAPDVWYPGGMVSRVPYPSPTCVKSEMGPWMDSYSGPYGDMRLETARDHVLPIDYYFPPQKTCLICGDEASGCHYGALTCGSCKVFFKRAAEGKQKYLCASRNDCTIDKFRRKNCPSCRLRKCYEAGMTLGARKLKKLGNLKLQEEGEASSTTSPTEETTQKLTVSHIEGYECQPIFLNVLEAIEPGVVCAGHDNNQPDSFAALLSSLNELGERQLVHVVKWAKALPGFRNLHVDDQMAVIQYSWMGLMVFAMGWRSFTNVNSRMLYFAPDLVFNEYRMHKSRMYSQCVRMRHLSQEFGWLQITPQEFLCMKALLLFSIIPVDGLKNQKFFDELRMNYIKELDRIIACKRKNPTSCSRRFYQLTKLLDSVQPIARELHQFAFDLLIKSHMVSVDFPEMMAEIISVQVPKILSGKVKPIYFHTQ
T2 sequence (Q13501 whole entry partner): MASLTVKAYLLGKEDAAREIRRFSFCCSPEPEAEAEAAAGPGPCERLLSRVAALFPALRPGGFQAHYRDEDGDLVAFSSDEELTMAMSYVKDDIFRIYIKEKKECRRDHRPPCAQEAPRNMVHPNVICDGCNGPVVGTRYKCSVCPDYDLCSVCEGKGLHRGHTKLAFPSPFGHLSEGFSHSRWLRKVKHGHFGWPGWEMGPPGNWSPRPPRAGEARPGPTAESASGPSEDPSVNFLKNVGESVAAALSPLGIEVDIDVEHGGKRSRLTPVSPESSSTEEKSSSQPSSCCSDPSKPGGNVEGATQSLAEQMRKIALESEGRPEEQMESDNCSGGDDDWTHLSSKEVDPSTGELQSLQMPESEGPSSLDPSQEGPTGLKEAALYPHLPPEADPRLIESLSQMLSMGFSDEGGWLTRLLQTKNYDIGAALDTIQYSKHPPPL

Question: Which “increase of autophagy at low concentration” value [1] does the source give for CC1(C)C(=O)N(c2ccc(C#N)c(C(F)(F)F)c2)C(=S)N1c1ccc(C(=O)NCCOCCOCCNC[C@@H](O)COc2ccc(OCc3ccc(F)cc3)c(OCc3ccc(F)cc3)c2)c(F)c1 [Compound A, (R)—N-(2-(2-(2-((3-(3,4-bis((4-fluorobenzyl)oxy)phenoxy)-2-hydroxypropyl)amino)ethoxy)ethoxy)ethyl)-4-(3-(4-cyano-3-(trifluoromethyl)phenyl)-5,5-dimethyl-4-oxo-2-thioxoimidazolidin-1-yl)-2-fluorobenzamide] here?
Answer: efficiently increase autophagy

Question: And the “degradation of androgen receptor through autophagy” value (androgen receptor [2])?
Answer: efficiently degrade androgen receptor

Question: Which results are given for CC1(C)C(=O)N(c2ccc(C#N)c(C(F)(F)F)c2)C(=S)N1c1ccc(C(=O)NCCOCCOCCOCCOCCNC[C@@H](O)COc2ccc(OCc3ccc(F)cc3)c(OCc3ccc(F)cc3)c2)c(F)c1 [Compound B, (R)—N-(18-(3,4-bis((4-fluorobenzyl)oxy)phenoxy)-17-hydroxy-3,6,9,12-tetraoxa-15-azaoctadecyl)-4-(3-(4-cyano-3-(trifluoromethyl)phenyl)-5,5-dimethyl-4-oxo-2-thioxoimidazolidin-1-yl)-2-fluorobenzamide]?
Answer: tumor growth in AR-V7-expressing 22Rv1 xenograft model [3]: Inhibits Tumor Growth; degradation of androgen receptor in tumor of mice (androgen receptor [4]): degrades androgen receptor; tumor growth in Xenograft mouse model (LNCaP xenograft tumors): efficiently inhibits tumor growth; cell proliferation / cell cycle [5]: inhibits cell proliferation by blocking the cell cycle in G1 phase; expression of AR target genes (AR target genes): down-regulates expression of AR target genes; colony formation of prostate cancer cell [6]: prevents colony formation; increase of autophagy at low concentration [1]: efficiently increase autophagy; increase of autophagy at early time point ([1]; 1 h): efficiently increases autophagy; degradation of wild type AR (wild type AR): degrades; degradation of androgen receptor through autophagy (androgen receptor [2]): efficiently degrade androgen receptor; degradation of AR-V7 by sequestering with wild type AR ([7]; FIG. 9a to 9d): can degrade AR-V7 by sequestering with wild type AR; degradation of AR-V7 ([7]; enzalutamide resistant cell, FIG. 9a): degrades; transcriptional activity of androgen receptor (androgen receptor [8]): inhibits transcriptional activity of androgen receptor

Question: With CC1(C)C(=O)N(c2ccc(C#N)c(C(F)(F)F)c2)C(=S)N1c1ccc(C(=O)NCCOCCOCCOCCOCCOCCOCCNC[C@@H](O)COc2ccc(OCc3ccc(F)cc3)c(OCc3ccc(F)cc3)c2)c(F)c1 [Compound C, (R)-N-(24-(3,4-bis((4-fluorobenzyl)oxy)phenoxy)-23-hydroxy-3,6,9,12,15,18-hexaoxa-21-azatetracosyl)-4-(3-(4-cyano-3-(trifluoromethyl)phenyl)-5,5-dimethyl-4-oxo-2-thioxoimidazolidin-1-yl)-2-fluorobenzamide] as the molecule, how does the “increase of autophagy at low concentration” value [1] read?
Answer: efficiently increase autophagy

Question: And the “degradation of androgen receptor through autophagy” value (androgen receptor [2])?
Answer: efficiently degrade androgen receptor

Question: For O[C@H](CNCCOCCOCCOCCOCCN1CCN(c2nc(-n3cc(Br)nc3Br)cs2)CC1)COc1ccc(OCc2ccc(F)cc2)c(OCc2ccc(F)cc2)c1 [Compound D, (R)-18-(3,4-bis((4-fluorobenzyl)oxy)phenoxy)-1-(4-(4-(2,4-dibromo-1H-imidazol-1-yl)thiazol-2-yl)piperazin-1-yl)-3,6,9,12-tetraoxa-15-azaoctadecan-17-ol], which “degradation of androgen receptor through autophagy” value (androgen receptor [2]) is on record?
Answer: efficiently degrade androgen receptor

Question: With O=C(COCCOCCOCCOCCNC[C@@H](O)COc1ccc(OCc2ccc(F)cc2)c(OCc2ccc(F)cc2)c1)N1CCN(c2nc(-n3cc(Br)nc3Br)cs2)CC1 [Compound E, (R)-18-(3,4-bis((4-fluorobenzyl)oxy)phenoxy)-1-(4-(4-(2,4-dibromo-1H-imidazol-1-yl)thiazol-2-yl)piperazin-1-yl)-17-hydroxy-3,6,9,12-tetraoxa-15-azaoctadecan-1-one] as the molecule, how does the “degradation of androgen receptor through autophagy” value (androgen receptor [2]) read?
Answer: efficiently degrade androgen receptor

Question: Which “degradation of androgen receptor through autophagy” value (androgen receptor [2]) does the source give for CC1(C)C(=O)N(c2ccc(C#N)c(C(F)(F)F)c2)C(=S)N1c1ccc(C(=O)NCCOCCOCCOCCOCCNC[C@@H](O)COc2cccc(OCc3ccc(F)cc3)c2)c(F)c1 [Compound F, (R)-4-(3-(4-cyano-3-(trifluoromethyl)phenyl)-5,5-dimethyl-4-oxo-2-thioxoimidazolidin-1-yl)-2-fluoro-N-(18-(3-((4-fluorobenzyl)oxy)phenoxy)-17-hydroxy-3,6,9,12-tetraoxa-15-azaoctadecyl)benzamide] here?
Answer: efficiently degrade androgen receptor

Question: Which “degradation of androgen receptor through autophagy” value (androgen receptor [2]) does the source give for CC1(C)C(=O)N(c2ccc(C#N)c(C(F)(F)F)c2)C(=S)N1c1ccc(C(=O)NCCCCCCOCCCCCNC[C@@H](O)COc2cccc(OCc3ccc(F)cc3)c2)c(F)c1 [Compound G, (R)-4-(3-(4-cyano-3-(trifluoromethyl)phenyl)-5,5-dimethyl-4-oxo-2-thioxoimidazolidin-1-yl)-2-fluoro-N-(6-((5-((3-(3-((4-fluorobenzyl)oxy)phenoxy)-2-hydroxypropyl)amino)pentyl)oxy)hexyl)benzamide] here?
Answer: efficiently degrade androgen receptor

Question: For CC1(C)C(=O)N(c2ccc(C#N)c(C(F)(F)F)c2)C(=S)N1c1ccc(OCCCCCCCC(=O)NCCOCCOCCNCc2cccc(OCc3ccc(F)cc3)c2)cc1 [Compound H, 8-(4-(3-(4-cyano-3-(trifluoromethyl)phenyl)-5,5-dimethyl-4-oxo-2-thioxoimidazolidin-1-yl)phenoxy)-N-(2-(2-(2-((3-((4-fluorobenzyl)oxy)benzyl)amino)ethoxy)ethoxy)ethyl)octanamide], which “degradation of androgen receptor through autophagy” value (androgen receptor [2]) is on record?
Answer: efficiently degrade androgen receptor

Question: With CC1(C)C(=O)N(c2ccc(C#N)c(C(F)(F)F)c2)C(=S)N1c1ccc(OCCOCCOCCOCCOCCOCCNCc2cccc(OCc3ccc(F)cc3)c2)cc1 [Compound I, 4-(3-(4-((1-(3-((4-fluorobenzyl)oxy)phenyl)-5,8,11,14,17-pentaoxa-2-azanonadecan-19-yl)oxy)phenyl)-4,4-dimethyl-5-oxo-2-thioxoimidazolidin-1-yl)-2-(trifluoromethyl)benzonitrile] as the molecule, how does the “degradation of androgen receptor through autophagy” value (androgen receptor [2]) read?
Answer: efficiently degrade androgen receptor
